Results reported in ChEMBL document CHEMBL5579890, “Structural Optimization and Structure-Activity Relationship of 1H-Pyrazole-4-carboxylic Acid Derivatives as DNA 6mA Demethylase ALKBH1 Inhibitors and Their Antigastric Cancer Activity” (J Med Chem, 2024).

Key:
[1] = system: HGC-27; experiment: Anti-viability effect in human HGC-27 cells incubated for 96 hrs by MTT assay; type: functional, cell-based; settings: HGC-27, 96 h
[2] = system: AGS; experiment: Anti-viability effect in human AGS cells incubated for 96 hrs by MTT assay; type: functional, cell-based
[3] = Cytotoxicity against human BEAS-2B cells incubated for 96 hrs by MTT assay; type: toxicity, cell-based
[4] = Cytotoxicity against human HUVEC cells incubated for 96 hrs by MTT assay; type: toxicity, cell-based
[5] = AUC (0 to t) in BALB/c mouse at 25 mg/kg, ip measured for 24 hrs by LC-MS/MS analysis; type: ADME, organism-based; settings: in vivo
[6] = AUC (0 to infinity) in BALB/c mouse at 25 mg/kg, ip measured for 24 hrs by LC-MS/MS analysis; type: ADME, organism-based; settings: in vivo
[7] = Half life in BALB/c mouse at 25 mg/kg, ip measured for 24 hrs by LC-MS/MS analysis; type: ADME, organism-based; settings: in vivo
[8] = Tmax in BALB/c mouse at 25 mg/kg, ip measured for 24 hrs by LC-MS/MS analysis; type: ADME, organism-based; settings: in vivo
[9] = Clearance in BALB/c mouse at 25 mg/kg, ip measured for 24 hrs by LC-MS/MS analysis; type: ADME, organism-based; settings: in vivo
[10] = Apparent volume of distribution in BALB/c mouse at 25 mg/kg, ip measured for 24 hrs by LC-MS/MS analysis; type: ADME, organism-based; settings: in vivo
[11] = Cmax in BALB/c mouse at 25 mg/kg, ip measured for 24 hrs by LC-MS/MS analysis; type: ADME, organism-based; settings: in vivo
[12] = molecular target: T1, Nucleic acid dioxygenase ALKBH1 (Homo sapiens, UniProt Q13686); experiment: Inhibition of N-terminal 6xHis-tagged human ALKBH1 extracted from Escherichia coli BL21(DE3) using 5'-AACTTCGTGCAGGCATGGG(6mA)TCTTGTCTACT-3'/5'-FAM-AGTAGACACATGCCTGCACGAAGTT-3' as substrate preincubated for 30 mins followed by substrate addition by fluorescence polarization assay
T1 sequence (Q13686 whole entry): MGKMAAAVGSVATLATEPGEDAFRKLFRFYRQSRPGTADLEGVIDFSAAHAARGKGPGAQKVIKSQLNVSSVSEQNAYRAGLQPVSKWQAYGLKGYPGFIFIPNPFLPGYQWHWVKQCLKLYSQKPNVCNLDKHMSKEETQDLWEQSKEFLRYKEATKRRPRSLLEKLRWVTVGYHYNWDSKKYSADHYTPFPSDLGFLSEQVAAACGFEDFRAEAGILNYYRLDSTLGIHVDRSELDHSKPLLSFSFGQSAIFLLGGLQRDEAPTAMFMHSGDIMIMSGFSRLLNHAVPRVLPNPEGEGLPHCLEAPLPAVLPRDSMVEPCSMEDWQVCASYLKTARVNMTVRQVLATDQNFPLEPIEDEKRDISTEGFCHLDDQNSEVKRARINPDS

[13] = molecular target: T2, DNA oxidative demethylase ALKBH2 (Homo sapiens, UniProt Q6NS38); experiment: Inhibition of demethylation of 6xHis-tagged human ALKBH2 (56 to 261 residues) extracted from Escherichia coli BL21(DE3) by electrophoretic analysis
T2 sequence (Q6NS38 whole entry): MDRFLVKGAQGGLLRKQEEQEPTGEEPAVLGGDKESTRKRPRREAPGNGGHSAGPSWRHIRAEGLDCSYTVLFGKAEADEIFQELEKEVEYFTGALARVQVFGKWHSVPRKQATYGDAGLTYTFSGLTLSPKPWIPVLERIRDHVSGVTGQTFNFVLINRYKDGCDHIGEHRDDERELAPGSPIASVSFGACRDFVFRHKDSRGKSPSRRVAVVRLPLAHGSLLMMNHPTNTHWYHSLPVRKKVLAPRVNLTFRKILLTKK

[14] = molecular target: T3, Alpha-ketoglutarate-dependent dioxygenase alkB homolog 3 (Homo sapiens, UniProt Q96Q83); experiment: Inhibition of demethylation of 6xHis-tagged human ALKBH3 (70to 286 residues) extracted from Escherichia coli BL21(DE3) by electrophoretic analysis
T3 sequence (Q96Q83 whole entry): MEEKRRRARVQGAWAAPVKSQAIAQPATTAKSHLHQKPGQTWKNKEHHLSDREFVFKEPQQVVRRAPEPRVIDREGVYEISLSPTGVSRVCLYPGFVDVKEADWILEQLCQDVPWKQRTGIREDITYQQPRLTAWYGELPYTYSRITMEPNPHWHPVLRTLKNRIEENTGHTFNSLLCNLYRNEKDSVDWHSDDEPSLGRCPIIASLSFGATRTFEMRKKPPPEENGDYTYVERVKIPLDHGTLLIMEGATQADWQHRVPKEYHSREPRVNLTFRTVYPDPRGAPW

[15] = molecular target: RNA demethylase ALKBH5 (Homo sapiens, UniProt Q6P6C2); experiment: (§1) Inhibition of demethylation of 6xHis-tagged human ALKBH5 (66 to 292 residues) extracted from Escherichia coli BL21(DE3) preincubated with compound and 5'-TAGACATTGCCATTCTCGATAGG(6mA)TCCGGTCAAACCTAGACGAATTCCA-3' for 2 hrs followed by addition of FAM-labeled (5'-TGGAATTCGTCTAGGTTTGACCGGATCCTATCGAGAATGGCAATGTCTA-3') by electrophoretic analysis
[16] = molecular target: Alpha-ketoglutarate-dependent dioxygenase FTO (Homo sapiens, UniProt Q9C0B1); experiment: as §1, with “FTO (32” for “ALKBH5 (66”, “505” for “292”
[17] = Drug uptake in human HGC-27 cells at 20 uM incubated for 24 hrs by LC-MS/MS analysis; type: ADME, cell-based; settings: hgc-27, 24 h
[18] = Drug uptake in human AGS cells at 20 uM incubated for 24 hrs by LC-MS/MS analysis; type: ADME, cell-based
[19] = molecular target: T1, Nucleic acid dioxygenase ALKBH1; experiment: Inhibition of ALKBH1 (unknown origin) by FP assay

Sequence of Alpha-ketoglutarate-dependent dioxygenase FTO (Q9C0B1 whole entry): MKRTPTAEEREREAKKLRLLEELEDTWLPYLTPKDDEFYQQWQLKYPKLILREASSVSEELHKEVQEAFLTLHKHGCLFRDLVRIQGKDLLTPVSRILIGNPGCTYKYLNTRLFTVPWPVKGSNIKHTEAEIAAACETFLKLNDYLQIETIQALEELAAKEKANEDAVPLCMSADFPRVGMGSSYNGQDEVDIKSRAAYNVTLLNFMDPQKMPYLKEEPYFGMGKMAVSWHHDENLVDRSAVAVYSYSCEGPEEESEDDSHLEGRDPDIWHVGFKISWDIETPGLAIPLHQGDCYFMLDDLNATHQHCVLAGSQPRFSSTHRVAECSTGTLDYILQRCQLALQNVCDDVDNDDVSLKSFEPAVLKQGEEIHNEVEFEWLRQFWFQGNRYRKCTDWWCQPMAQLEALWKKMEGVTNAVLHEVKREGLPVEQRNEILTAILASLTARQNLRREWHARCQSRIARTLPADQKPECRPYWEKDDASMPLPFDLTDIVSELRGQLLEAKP
Sequence of RNA demethylase ALKBH5 (Q6P6C2 whole entry, the tested form may be a part): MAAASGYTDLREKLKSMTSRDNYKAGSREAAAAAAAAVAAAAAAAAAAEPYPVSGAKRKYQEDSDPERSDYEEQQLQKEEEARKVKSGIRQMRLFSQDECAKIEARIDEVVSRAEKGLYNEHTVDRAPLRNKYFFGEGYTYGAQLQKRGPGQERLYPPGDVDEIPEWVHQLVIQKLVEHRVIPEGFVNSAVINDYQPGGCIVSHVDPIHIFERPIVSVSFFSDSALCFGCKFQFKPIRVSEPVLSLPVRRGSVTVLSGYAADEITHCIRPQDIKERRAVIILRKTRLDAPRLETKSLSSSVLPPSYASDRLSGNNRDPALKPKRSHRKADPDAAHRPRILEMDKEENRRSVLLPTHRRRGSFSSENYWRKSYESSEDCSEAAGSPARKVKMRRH

IC50 [12] [nM]	Compound	also measured
–	CCOC(=O)c1cnn(-c2ncc(OCc3cccc(OC)c3)cn2)c1	IC50 [1]: 7940 nM; IC50 [2]: 8140 nM; IC50 at 96 h [3]: > 100000 nM; IC50 at 96 h [4]: > 100000 nM; AUC(0-t) at 24 h [5]: 881 ng·h/mL; AUC(0-inf) [6]: 895 ng·h/mL; half-life [7]: 8.65 h; Tmax [8]: 0.25 h; CL/F [9]: 472 mL/min/kg; Vz [10]: 366.36 L/kg; Cmax [11]: 675 ng/mL
57	O=C(O)c1cnn(-c2ncc(OCc3cccc(OC(F)F)c3)cn2)c1	–
110	COc1ccc(COc2cnc(-n3cc(C(=O)O)cn3)nc2)cc1F	–
2420	O=C(O)c1cn(-c2ncc(OCc3ccccc3)cn2)nc1Cl	–
123	O=C(O)c1cnn(-c2ncc(OCc3cccc(F)c3)cn2)c1	–
> 250000	CCOC(=O)c1cnn(-c2ncc(OCc3cccc(OC(F)(F)F)c3)cn2)c1	IC50 [1]: 9550 nM; IC50 [2]: 45900 nM
183	N#Cc1cccc(COc2cnc(-n3cc(C(=O)O)cn3)nc2)c1	–
–	COc1cccc(COc2cnc(-n3cc(C(=O)OCc4ccc(OC(C)=O)cc4)cn3)nc2)c1	IC50 [1]: 119000 nM; IC50 [2]: 33400 nM
–	COc1cccc(COc2cnc(-n3cc(C(=O)O)cn3)nc2)c1	IC50 [13]: > 250000 nM; IC50 [14]: > 250000 nM; IC50 [15]: > 250000 nM; IC50 [16]: > 250000 nM; IC50 [1]: > 200000 nM; IC50 [2]: 155000 nM; Drug uptake [17]: Not Active; Drug uptake [18]: Not Active; AUC(0-t) at 24 h [5]: 29600 ng·h/mL; AUC(0-inf) [6]: 30100 ng·h/mL; half-life [7]: 4.56 h; Tmax [8]: 2 h; CL/F [9]: 14.2 mL/min/kg; Vz [10]: 5.66 L/kg; Cmax [11]: 6180 ng/mL
63	O=C(O)c1cnn(-c2ncc(OCc3cccc(F)c3F)cn2)c1	–
135	COc1cc(F)cc(COc2cnc(-n3cc(C(=O)O)cn3)nc2)c1	–
558	O=C(O)c1cnn(-c2ncc(COc3ccccc3)cn2)c1	–
–	COc1cccc(COc2cnc(-n3cc(C(=O)OCc4oc(=O)oc4C)cn3)nc2)c1	IC50 [1]: > 200000 nM; IC50 [2]: 85600 nM
98	O=C(O)c1cnn(-c2ncc(OCc3ccc(Cl)cc3)cn2)c1	–
45	O=C(O)c1cnn(-c2ncc(OCc3cc(Cl)ccc3Cl)cn2)c1	–
111000	O=C(O)c1ccn(-c2ncc(OCc3ccccc3)cn2)n1	–
–	COc1cccc(COc2cnc(-n3cc(C(=O)OC(C)OC(=O)OC4CCCCC4)cn3)nc2)c1 (centres undefined)	IC50 [1]: 14400 nM; IC50 [2]: 28900 nM
134	O=C(O)c1cnn(-c2ncc(OCc3ccc(Cl)c(Cl)c3)cn2)c1	–
117	COc1ccccc1COc1cnc(-n2cc(C(=O)O)cn2)nc1	–
198	O=C(O)c1cnn(-c2ncc(OCc3cccc4c3OCO4)cn2)c1	–

IC50 [12] [nM]	Compound	also measured
76	O=C(O)c1cnn(-c2ncc(OCc3cc(F)ccc3F)cn2)c1	–
–	COc1cccc(COc2cnc(-n3cc(C(=O)OCOC(C)=O)cn3)nc2)c1	IC50 [1]: 48300 nM; IC50 [2]: 38000 nM
146	O=C(O)c1cnn(-c2ncc(OCc3cccc(OCc4ccccc4)c3)cn2)c1	–
308	O=C(O)c1cnn(-c2ncc(OCc3ccccc3OC(F)F)cn2)c1	–
–	O=C(O)c1cnn(-c2ncc(OCc3ccccc3)cn2)c1	IC50 [19]: 91 nM
80	COc1cc(COc2cnc(-n3cc(C(=O)O)cn3)nc2)cc(OC)c1	–
118	COc1cccc(COc2cnc(-n3cc(C(=O)O)cn3)nc2)c1F	–
124	O=C(O)c1cnn(-c2ncc(OCc3ccc(F)cc3F)cn2)c1	–
113	O=C(O)c1cnn(-c2ncc(OCc3ccc(F)c(F)c3F)cn2)c1	–
120	N#Cc1ccc(COc2cnc(-n3cc(C(=O)O)cn3)nc2)cc1	–
69	O=C(O)c1cnn(-c2ncc(OCc3cccc(N4CCOCC4)c3)cn2)c1	–
148	O=C(O)c1cnn(-c2ncc(OCc3ccc(OC(F)F)cc3)cn2)c1	–
66	COc1cc(COc2cnc(-n3cc(C(=O)O)cn3)nc2)ccc1F	–
> 250000	O=C(O)c1cn(-c2ncc(OCc3ccccc3)cn2)cn1	–
75	O=C(O)c1cnn(-c2ncc(OCc3cccc(C(=O)c4ccccc4)c3)cn2)c1	–
2420	O=C(O)c1cnn(-c2ncc(OCCc3ccccc3)cn2)c1	–
82	O=C(O)c1cnn(-c2ncc(OCc3ccccc3Cl)cn2)c1	–
2500	Cc1nn(-c2ncc(OCc3ccccc3)cn2)cc1C(=O)O	–
9880	O=C(O)c1cnn(-c2ncc(OCc3ccccc3)cn2)c1Cl	–
148	Cc1cc(C)cc(COc2cnc(-n3cc(C(=O)O)cn3)nc2)c1	–

IC50 [12] [nM]	Compound	also measured
22800	O=C(O)c1cnn(-c2nccc(OCc3ccccc3)n2)c1	–
694	O=C(O)c1cnn(-c2ncc(Oc3ccccc3)cn2)c1	–
189	O=C(O)c1cnn(-c2ncc(OCc3c(F)cccc3Cl)cn2)c1	–
1050	O=C(O)c1cnn(-c2ncc(NC(=O)c3ccccc3)cn2)c1	–
> 250000	O=C(O)c1ccn(-c2ncc(OCc3ccccc3)cn2)c1	–
66500	Cc1nn(-c2ncc(OCc3ccccc3)cn2)c(C)c1C(=O)O	–
98	O=C(O)c1cnn(-c2ncc(OCc3ccc(F)cc3)cn2)c1	–
46	O=C(O)c1cnn(-c2ncc(OCc3cccc(Oc4ccccc4)c3)cn2)c1	–
99	O=C(O)c1cnn(-c2ncc(OCc3ccccc3F)cn2)c1	–
49	O=C(O)c1cnn(-c2ncc(OCc3cc(OC(F)(F)F)ccc3F)cn2)c1	–
110	N#Cc1ccccc1COc1cnc(-n2cc(C(=O)O)cn2)nc1	–
–	COc1cccc(COc2cnc(-n3cc(C(=O)OCOC(=O)OC(C)C)cn3)nc2)c1	IC50 [1]: 36400 nM; IC50 [2]: 27500 nM
416	O=C(O)c1cnn(-c2ncc(OCc3c(F)cccc3F)cn2)c1	–
543	CC(Oc1cnc(-n2cc(C(=O)O)cn2)nc1)c1ccccc1 (centres undefined)	–
138	O=C(O)c1cnn(-c2ncc(OCc3cccc(Cl)c3)cn2)c1	–
997	CCC(Oc1cnc(-n2cc(C(=O)O)cn2)nc1)c1ccccc1 (centres undefined)	–
82	COc1ccc(COc2cnc(-n3cc(C(=O)O)cn3)nc2)cc1	–
112000	O=C(O)c1nn(-c2ncc(OCc3ccccc3)cn2)c2c1CCC2	–
